Data as given in publication PMC2504886 (The Journal of Biological Chemistry, 2008).

Target: T1, T. maritima CopA (WT CopA) (Thermotoga maritima, UniProt Q9WYF3)
T1 sequence (Q9WYF3 1-726): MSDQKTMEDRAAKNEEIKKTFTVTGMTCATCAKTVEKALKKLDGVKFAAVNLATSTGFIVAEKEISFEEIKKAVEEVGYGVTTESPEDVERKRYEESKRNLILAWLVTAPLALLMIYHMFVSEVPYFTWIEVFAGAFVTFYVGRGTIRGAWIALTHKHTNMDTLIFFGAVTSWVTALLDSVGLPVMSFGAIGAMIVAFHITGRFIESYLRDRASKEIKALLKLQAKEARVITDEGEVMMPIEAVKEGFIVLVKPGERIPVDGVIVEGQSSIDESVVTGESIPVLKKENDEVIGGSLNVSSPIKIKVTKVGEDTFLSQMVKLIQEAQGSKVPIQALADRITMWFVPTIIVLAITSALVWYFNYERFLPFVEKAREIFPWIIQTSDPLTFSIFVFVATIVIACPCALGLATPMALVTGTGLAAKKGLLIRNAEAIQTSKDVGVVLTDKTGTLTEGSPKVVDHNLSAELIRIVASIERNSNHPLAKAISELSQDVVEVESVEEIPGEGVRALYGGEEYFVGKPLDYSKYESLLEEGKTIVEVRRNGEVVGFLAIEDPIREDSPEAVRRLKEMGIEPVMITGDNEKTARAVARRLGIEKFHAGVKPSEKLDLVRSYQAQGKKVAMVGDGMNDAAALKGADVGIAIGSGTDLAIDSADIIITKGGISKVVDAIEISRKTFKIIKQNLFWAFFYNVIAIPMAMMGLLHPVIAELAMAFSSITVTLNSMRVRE
Assay: phosphoenzyme
Format: binding

Work on O=P(O)(O)O [Pi] yielded a Kd of 3.3 µM.
